In patent US4933356A, “Diflunisal potentiation of acetazolamide in the control of intraocular pressure” (Cornell Research Foundation, Inc., priority 1988, dated 1990):
“And” between values parts separate entries of the source, which are not always exact repeats. Equal entries are not always repeated. “Also recorded” adds a separate entry of the source. Where two headings read alike, the source gives them in different places.

Tests used:
[1] = cited from earlier work
[2] = tested on: glaucoma patients (intraocular pressure); experiment: Change in intraocular pressure (IOP) in glaucoma patients after one week of added diflunisal; format: in vivo, human; conditions: for Change in IOP following diflunisal treatment: Table I, mean ± SD; for effect of diflunisal on hypotensive action / IOP (in words): diflunisal added to stated drug
Protocol: (§3) All subjects taking part in this study participated voluntarily and an informed consent was obtained from each prior to their enrollment in the study. Forty-eight glaucoma patients (19 men and 29 women) on maximally tolerated antiglaucoma medications were assigned consecutively to the study. […] All eyes were treated with at least one preparation of topical antiglaucoma medications; pilocarpine (60 eyes), epinephrine or dipivefrin hydrochloride (27 eyes), timolol, levobunolol or betaxolol (80 eyes), and echothiophate iodide (17 eyes). Upon entering the study each patient received a full ophthalmologic examination which included a visual acuity determination, slitlamp examination, IOP measurement (baseline) with a Goldmann applanation tonometer, gonioscopy, and a dilated fundus examination. Patients were instructed to take oral diflunisal, 500 mg, twice daily for one week, while their regular antiglaucoma medications remained unchanged. A week later patients were examined again for visual acuity, slit lamp examination, IOP measurement and a history of side effects. Baseline and follow-up IOP was measured by the same investigator using the same tonometer at approximately the same time of day.

[3] = tested on: normal volunteers (intraocular pressure); experiment: Change in intraocular pressure in normal volunteers (control group) given diflunisal alone; format: in vivo, human; conditions: normal controls
Protocol: Eight normal volunteers (52.3±16.4 years) on no medications participated in this study as a control group to study the ocular hypotensive effect of diflunisal itself and were given oral diflunisal, 500 mg, twice daily for one week. The examinations before and after diflunisal were similarly taken as glaucoma patients described above.

[4] = tested on: prostaglandin synthesis (cyclooxygenase); conditions: at high doses; cited from earlier work
human plasma protein = conditions: cited from earlier work
[5] = in vivo; cited from earlier work
[6] = tested on: plasma albumin / plasma protein; conditions: cited from earlier work
[7] = Plasma protein binding (background and discussion); format: in vitro ADME; conditions: read-out: plasma albumin binding of acetazolamide (converted)
[8] = In vitro plasma binding of acetazolamide with graded concentrations of diflunisal (dialysis); format: in vitro ADME; conditions: human, 90 μM acetazolamide
Protocol: An in vitro study was performed for the effect of graded doses of diflunisal on the plasma binding of acetazolamide. Both drugs were added to plasma of a single non-glaucomatous individual and duplicate dialyses were done.
(§1) Acetazolamide was analyzed by assay against carbonic anhydrase (Maren, T. H., J. Pharmacol. Exp. Therap.. 130:26 (1960)). Dialysis was carried out in a specially constructed cell consisting of two chambers of 1 ml capacity separated by Spectra/Por membrane, MW cutoff 6,000-8,000, Spectrum Med. Industries. One ml plasma, after analysis for total drug, was introduced to one compartment and 1 ml physiological saline to the other. The solutions were each mixed for 18 hours at 25* and then analyzed and calculated for free and total drug.
^a In Vitro plasma binding of 90 μM acetazolamide in a single
individual ([…]) following graded concentrations of diflunisal.

glaucoma patients = experiment: Side effects in glaucoma patients after addition of diflunisal; conditions: acetazolamide plus diflunisal; severe nausea and extreme confusion
Protocol: as §3

[9] = Plasma unbound acetazolamide in patients by dialysis, before/after diflunisal; format: in vitro ADME; conditions: human, seven patients
Protocol: (§2) In 15 acetazolamide-treated patients 2-3 cc of venous blood was drawn before and again, at the same time of day, after one week on diflunisal for determination of total plasma concentration of acetazolamide. The blood sample underwent centrifugation at 5000 rpm for 5 minutes, and the plasma was separated and refrigerated until analysis. In addition, the plasma of seven of these 15 acetazolamide-treated patients was subjected to dialysis for determination of binding to albumin.
as §1

[10] = Plasma concentration of acetazolamide (total and free) in glaucoma patients, before/after diflunisal; format: in vivo, human; conditions: for concentration: 15 patients, read-out: total acetazolamide plasma level
Protocol: as §2
A blood sample was also taken from six acetazolamide-treated patients twice at a one week interval without diflunisal treatment.
as §1

[11] = diflunisal 500 mg oral twice daily, one week, added to stated antiglaucoma medication

O=C(O)c1cc(-c2ccc(F)cc2F)ccc1O [Diflunisal, 2-(hydroxy)-5-(2,4-difluorophenyl) benzoic acid]
time to steady state plasma levels ([1]; 500 mg twice daily): 3 to 9 days | time to peak plasma levels ([1]; in vivo, po): 2 to 3 h | absorption from the intestines ([1]; in vivo): well absorbed from the intestines | excretion ([1]; in vivo): excreted mostly in the urine as a glucuronide | Change in IOP following diflunisal treatment ([2]; diflunisal 500 mg twice daily, one week, topically treated only, n = 22 eyes): -0.7 ± 2.1 mm Hg | change in IOP after diflunisal (in words) ([2]; patients on topical medications alone, plus diflunisal): no significant change in IOP; also recorded: did not result in a significant reduction of IOP | Change in IOP following diflunisal treatment ([3]; Table I, diflunisal alone 500 mg twice daily, one week, n = 16 eyes, mean ± SD): 0.0 ± 1.0 mm Hg | change in IOP after diflunisal (in words) ([3]; diflunisal alone): no significant change in IOP; also recorded: did not result in a significant reduction of IOP | inhibition of prostaglandin synthesis [4]: inhibits prostaglandin synthesis | displacement of drugs from plasma protein (human plasma protein): can unbind partially bound compounds such as salicylic acid and phenprocoumin | displacement of drugs from plasma protein (human plasma protein; listed as diflunisal): displace the following compounds from human plasma protein: salicylate and phenprocoumin | most frequent adverse reactions [5]: nausea, gastrointestinal discomfort and diarrhea | tolerability versus aspirin [5]: generally better tolerated than aspirin

CC(=O)/N=c1/sc(S(N)(=O)=O)nn1C [Methazolamide]
plasma protein binding [6]: 55% | Change in IOP following diflunisal treatment [2, 11]: -1.6 ± 1.5 mm Hg | mean reduction of IOP ([2]; added diflunisal 500 mg twice daily, one week, vs baseline): 1.6±1.5 mm Hg | effect of diflunisal on hypotensive action / IOP (in words) [2]: did not result in a significant reduction of IOP; also recorded: did not affect the hypotensive action

O=C(O)c1ccccc1O [Salicylate, salicylic acid]
unbinding of acetazolamide from plasma proteins (human plasma protein): unbind acetazolamide from plasma proteins

CC(=O)Nc1nnc(S(N)(=O)=O)s1 [Acetazolamide, 5-acetamido-1,3,4-thiadiazole-2-sulfonamide]
fraction unbound ([7]; reduced by diflunisal): ~0.2 | fraction unbound ([7]; without diflunisal): 0.03 to 0.07 | fraction unbound at 18 h, 90 µM ([8]; diflunisal 0 μm): 0.07 | fraction unbound at 18 h, 90 µM ([8]; diflunisal 200 μm): 0.14 | fraction unbound at 18 h, 90 µM ([8]; diflunisal 400 μm): 0.22 | fraction unbound at 18 h, 90 µM ([8]; diflunisal 600 μm): 0.26 | patients dropped from study because of severe side effects (glaucoma patients): Two | fraction unbound at 18 h ([9]; after diflunisal): 0.162 ± 0.087 | fraction unbound at 18 h ([9]; before diflunisal): 0.043 ± 0.027 | relationship between daily dosage of acetazolamide and IOP reduction ([2]; FIG. 1, after one week of diflunisal): no relationship between the daily dosage of acetazolamide and the IOP reduction | Change in IOP following diflunisal treatment [2, 11]: -3.8 ± 3.1 mm Hg | effect of diflunisal on hypotensive action / IOP (in words) [2]: significant decrease in IOP | concentration ([10]; after one week on diflunisal, P<0.015 vs baseline): 31.8 ± 16.1 µM | concentration ([10]; baseline before diflunisal): 19.1 ± 9.1 µM | increase in free plasma levels of acetazolamide ([10]; addition of diflunisal): 5.6 fold | increase in total plasma levels of acetazolamide ([10]; addition of diflunisal): ~50% | free (unbound) acetazolamide plasma concentration ([10]; after diflunisal): 5.6 ± 4.1 µM and 5.6 µM | free (unbound) acetazolamide plasma concentration ([10]; before diflunisal): 1.0 ± 0.6 µM and 1.0 µM | change in total acetazolamide plasma level over one week ([10]; six patients without additional diflunisal, P≥0.05): no significant change
